Data set [1] in a line: Acute toxicity test, oral administration to mice. Conditions: mouse, in vivo, Male mice. The data set is classed as in vivo. Here is the method:
The test compounds were administered orally to the mice and LD50 (mg/kg) of the compounds was determined.

Data set [2] can be described thus: Concentration in blood of male beagle dogs. In kind it is in vivo. Conditions: 30 mg/kg water suspension; for concentration at 1 h / concentration at 2 h / concentration at 4 h / concentration at 6 h / concentration at 8 h / concentration at 12 h: dog, plasma, 30 mg/kg; for Concentration in blood: Beagle dog. Here is the method:
(§1) A water suspension of test compound was administered at the dose of 30 mg/kg to the overnight fasted male Wister rats and male beagle dogs, and after a predetermined period of time, blood was collected from said animals to obtain plasma. 2 to 3 Milliliters of 0.1 N-NaOH and 2 ml of CHCl3 were added to 1 ml of the obtained plasma, and the mixture was shaken and extracted in a shaker for 2 hours, and after centrifugal separation, the organic layer was washed with 2 ml of 0.1 N-HCl. This organic layer was then subjected to a freezing and thawing treatment, and after evaporating chloroform under nitrogen stream, the residue was redissolved in 100 μl of chloroform and spotted on a thin layer plate of "Silica Gel 60 F254 " manufactured by Merck & Co., Inc. This was developed in a chloroform: butanol mixed solvent (5:1) and determined by measuring the spots with same Rf value as the test compound according to the absorbance method by using Shimazu CS-910 Thin Layer Chromato-scanner,and therefrom the concentration (μg/ml) of test compound A in blood was determined.

Data set [3] in a line: Concentration in blood of male Wister rats. In kind it is in vivo. Conditions: 30 mg/kg water suspension; for concentration at 1 h / concentration at 2 h / concentration at 4 h / concentration at 6 h / concentration at 12 h / concentration at 8 h: rat, plasma, 30 mg/kg; for Concentration in blood: Rat. Here is the method:
as §1

The subject of data set [4] is rabbit platelet. The data set can be described thus: ADP-induced aggregation in rabbit platelets (AG-II Aggregometer). The conditions noted are these: Oryctolagus cuniculus, Platelet, read-out: Inhibition effect on ADP-induced aggregation in rabbit platelet; for inhibition at 100 µM (stock): 10^-4 mole; for inhibition at 10 µM (stock): 10^-5 mole; for inhibition at 1 µM (stock): 10^-6 mole. The data set is classed as cell-based. Here is the method:
(§2) The platelet aggregation inhibitory effect is measured by using AG-II Aggregometer (manufactured by Bryston Manufacturing Co.). The blood sample used for the test is a 1/9 (by volume) mixture of sodium citrate and whole blood collected from rabbit. Said sample is subjected to 10-minute centrifugal separation at 1,000 r.p.m. to obtain a platelet rich plasma (PRP). The thus obtained PRP is separated, and the remaining blood sample is further subjected to 15-minute centrifugal separation at 3,000 r.p.m. to obtain a platelet poor plasma (PPP).
(§3) The number of platelets in the PRP is counted by the Brecher-Clonkite Method, and the PRP is diluted with the PPP to prepare a PRP sample with platelet concentration of 300,000/mm^3 for the adenosine diphosphate (ADP)-induced aggregation test. There is also prepared a PRP sample with platelet concentration of 450,000/mm^3 for the collagen-induced aggregation test.
(§4) 0.6 ml of said PRP sample is added into 0.01 ml of a solution of a test compound of a predetermined concentration and the mixture is placed in a 37° C. thermostat for one minute. Then 0.07 ml of an ADP or collagen solution is added to the mixture. Transmittance of this mixture is determined and the change of transmittance is recorded by using the aggregometer at stirrer speed of 1,100 r.p.m. In this test, Auren Beronal buffer (pH 7.35) is used for the preparation of the ADP or collagen solution. ADP is adjusted to a concentration of 7.5×10^-5 M, and the collagen solution is prepared by triturating 100 mg of collagen with 5 ml of said buffer and the supernatant is used as collagen inducer. Adenosine and acetylsalicylic acid are used as controls for the ADP-induced aggregation test and the collagen-induced aggregation test, respectively. The platelet aggregation inhibitory effect is measured in terms of percent inhibition with respect to the aggregation rate of the controls. The aggregation rate is calculated from the following formula:
(§5) Aggregation rate=(c-a)/(b-a)×100
(§6) b: transmittance of PRP containing a test compound and an aggregation inducer
(§7) The inhibitory effect of the tested compounds on collagen-induced aggregation in rabbit platelets is shown in Table 1, and such effect on ADP-induced aggregation is shown in Table 2. The compounds tested are as follows.

Data set [5] relates to rabbit platelet. The data set can be described thus: Collagen-induced aggregation in rabbit platelets (AG-II Aggregometer). Conditions: Oryctolagus cuniculus, Platelet, read-out: Inhibition effect on collagen induced aggregation in rabbit platelet; for inhibition at 10 µM (stock): 10^-5 mole; for inhibition at 1 µM (stock): 10^-6 mole; for inhibition at 100 µM (stock): 10^-4 mole. In kind it is cell-based. The protocol:
as §2, §3, §4, §5, §6, §7

Structures are written as SMILES.

What is called LD50 is the dose at which mortality reaches 50%. Higher therefore signals a less toxic substance. Broadly, the inhibition is the share of the control response that was lost under treatment.

In data set [1], `CC1CCCCC1N(C)C(=O)CCCOc1ccc2[nH]c(=O)ccc2c1` (centres unmarked) [compound 1, 6-{3-[N-Methyl-N-(2-methylcyclohexyl)aminocarbonyl]propoxy}carbostyril] came in with an LD50 of more than 1000 mg/kg. Also, the concentration at 1 h came to 280 ng/mL in data set [2] (1 hr.) and 1050 ng/mL in data set [3]. Moreover, the values for the concentration at 2 h in data set [2] (2 hr.) and in data set [3] (2 hr.) were 310 ng/mL and 1620 ng/mL, respectively. The concentration at 4 h in data set [2] (4 hr.) stood at 210 ng/mL; in data set [3] (4 hr.) it was 940 ng/mL. Besides, the concentration at 6 h in data set [2] turned out to be 130 ng/mL; in data set [3], 530 ng/mL. Moreover, the concentration at 8 h in data set [2] was determined as 80 ng/mL. For the same compound, the figures for the concentration at 12 h in data set [2] and in data set [3] were 50 ng/mL and 480 ng/mL, respectively. Moreover, the inhibition at 100 µM (stock) with rabbit platelet [4] is 100%. Further, the results for the inhibition at 10 µM (stock) in the data set with rabbit platelet [4] and in the data set with rabbit platelet [5] were 73% and 100%, respectively. The inhibition at 1 µM (stock) was determined as 42.4% in the data set with rabbit platelet [4] and 100% in the data set on rabbit platelet [5]. Besides, the inhibition at 0.1 µM (stock) in the data set on rabbit platelet [4] (10^-7 mole) was found to be 4.3%; with rabbit platelet [5] (10^-7 mole), 21.1%.

Take `O=C1CCc2cc(OCCCC(=O)N(C3CCCCC3)C3CCCCC3)ccc2N1` [compound 18, 6-[3-(N,N-Dicyclohexylaminocarbonyl)propoxy]-3,4-dihydrocarbostyril]: the LD50 in data set [1] is more than 1000 mg/kg. Further, the concentration at 1 h in data set [2] (1 hr.) came to 360 ng/mL. In addition, in data set [2] (2 hr.), the concentration at 2 h was determined as 230 ng/mL. In data set [2] (4 hr.), this compound had a concentration at 4 h of 320 ng/mL. In data set [2], the concentration at 6 h was 170 ng/mL, the concentration at 8 h amounted to 130 ng/mL and the concentration at 12 h was determined as 60 ng/mL. In data set [3], this compound showed a concentration at 1 h of 1320 ng/mL, a concentration at 6 h of 690 ng/mL, a concentration at 8 h of 560 ng/mL and a concentration at 12 h of 420 ng/mL. In data set [3] (2 hr.), this compound registered a concentration at 2 h of 1740 ng/mL. The compound also returned a concentration at 4 h in data set [3] (4 hr.) of 1020 ng/mL. Further, in the data set on rabbit platelet [4], the inhibition at 100 µM (stock) turned out to be 86.4%, the inhibition at 10 µM (stock) was found to be 37.5% and the inhibition at 1 µM (stock) was 12.6%. Further, in the data set on rabbit platelet [5], the inhibition at 100 µM (stock) is 87.5%, the inhibition at 10 µM (stock) came out at 59.4% and the inhibition at 1 µM (stock) amounted to 50%.

Consider `CCN(C(=O)CCCOc1ccc2[nH]c(=O)ccc2c1)c1ccccc1` [compound 20, 6-[3-(N-Ethylanilinocarbonyl)propoxy]carbostyril], for which the LD50 in data set [1] was more than 1000 mg/kg. Besides, in data set [2] (1 hr.), the concentration at 1 h amounted to 320 ng/mL. For the same compound, in data set [2], the concentration at 6 h stood at 80 ng/mL and the concentration at 8 h was determined as 50 ng/mL. In data set [3], this compound returned a concentration at 1 h of 950 ng/mL, a concentration at 6 h of 460 ng/mL and a concentration at 12 h of 280 ng/mL. In addition, the concentration at 2 h in data set [3] (2 hr.) is 1370 ng/mL. Also, the concentration at 4 h in data set [3] (4 hr.) amounted to 920 ng/mL. Also, in the data set with rabbit platelet [4], the inhibition at 100 µM (stock) was 82.5%, the inhibition at 10 µM (stock) was found to be 31.7% and the inhibition at 1 µM (stock) came to 13.5%. For the same compound, in the data set with rabbit platelet [5], the inhibition at 100 µM (stock) stood at 91.3%, the inhibition at 10 µM (stock) was 76.3% and the inhibition at 1 µM (stock) is 43.2%.

In data set [1], `CN(C(=O)CCCOc1cccc2c1CCC(=O)N2)C1CCCCC1` [compound 23, 5-[3-(N-Methyl-N-cyclohexylaminocarbonyl)propoxy]-3,4-dihydrocarbostyril] gave an LD50 of more than 1000 mg/kg. The concentration at 1 h in data set [2] (1 hr.) came to 430 ng/mL; in data set [3] it was 1530 ng/mL. The results for the concentration at 2 h in data set [2] (2 hr.) and in data set [3] (2 hr.) were 290 ng/mL and 2240 ng/mL, respectively. Moreover, the concentration at 4 h amounted to 210 ng/mL in data set [2] (4 hr.) and 940 ng/mL in data set [3] (4 hr.). The concentration at 6 h in data set [2] stood at 140 ng/mL; in data set [3], 540 ng/mL. The concentration at 8 h stood at 50 ng/mL in data set [2] and 390 ng/mL in data set [3]. Moreover, the figures for the concentration at 12 h in data set [2] and in data set [3] were 70 ng/mL and 520 ng/mL, respectively. Besides, the inhibition at 100 µM (stock) stood at 73.6% in the data set with rabbit platelet [4] and 76.5% in the data set on rabbit platelet [5]. The figures for the inhibition at 10 µM (stock) in the data set on rabbit platelet [4] and in the data set with rabbit platelet [5] were 26.1% and 58.7%, respectively. For the same compound, the inhibition at 1 µM (stock) was found to be 8.7% in the data set on rabbit platelet [4] and 13.5% in the data set with rabbit platelet [5].

In data set [1], `CCOC(=O)CCCOc1ccc2c(c1)CCC(=O)N2` [compound 29, 6-(3-Ethoxycarbonylpropoxy)-3,4-dihydrocarbostyril, reference compound] came in with an LD50 of more than 1000 mg/kg. For the same compound, the Concentration in blood in data set [2] (2 hr.), in data set [2] (4 hr.), in data set [3] (2 hr.) and in data set [3] (4 hr.) was 0 ng/mL throughout. Moreover, the concentration at 1 h in data set [2] (1 hr.) and in data set [3] was 10 ng/mL each time. The inhibition at 100 µM (stock) in the data set on rabbit platelet [4] was found to be 100%. The results for the inhibition at 1 µM (stock) in the data set with rabbit platelet [4] and with rabbit platelet [5] were 10% and 8%, respectively. In addition, the inhibition at 10 µM (stock) with rabbit platelet [5] turned out to be 38%.

On to `CCOC(=O)CCCOc1ccc2[nH]c(=O)ccc2c1` [compound 34, 6-(3-Ethoxycarbonylpropoxy)carbostyril, reference compound], for which the LD50 in data set [1] is more than 1000 mg/kg. Moreover, the Concentration in blood in data set [2] (1 hr.), in data set [2] (2 hr.), in data set [3] (2 hr.) and in data set [3] (4 hr.) was 0 ng/mL throughout. Also, in data set [3], the concentration at 1 h came out at 10 ng/mL. For the same compound, the inhibition at 100 µM (stock) with rabbit platelet [4] and in the data set with rabbit platelet [5] was 100% each time. In addition, the inhibition at 10 µM (stock) was 90% in the data set with rabbit platelet [4] and 86% in the data set with rabbit platelet [5]. The figures for the inhibition at 1 µM (stock) with rabbit platelet [4] and in the data set on rabbit platelet [5] were 25% and 18%, respectively.

The values are drawn from patent US4298739A, “Novel carbostyril derivatives” (priority 1977, dated 1981).
